The test system of one assay is adjuvant arthritis. The conditions noted are these: rat adjuvant arthritis; cited from earlier work.
The next assay deals with endotoxin-induced shock. Conditions: murine model of endotoxin-induced shock; cited from earlier work.
Assay [1] relates to collagen-induced arthritis. The conditions noted are these: mouse collagen-induced arthritis; cited from earlier work.
For a further assay, the system named is granulomas. The conditions noted are these: laboratory rats; cited from earlier work.
A further assay has as its target MK-3 (Homo sapiens, UniProt Q16644). The experiment in a line: MK-3 inhibition IC50 (similar method to MK-2, with appropriate modifications). It is filed as biochemical. The conditions noted are these: read-out: MK-3 Avg. IC50.
In another assay the target is MAPKAPK2 (MK-2) (Homo sapiens, UniProt P49137). Put plainly: Determination of MK-2 IC50 (HSP-peptide phosphorylation, anion exchange resin capture assay). It is filed as biochemical. Summed up:
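MAPKAPK2, preactivated by p38α with 0.25 mM ATP for 1 h at 30° C, used at 15 nM to phosphorylate HSP-peptide with 0.03 mM ATP plus [γ33P]ATP, pH 7.5, 2% DMSO, 30 min at 30° C. Labelled peptide counted after anion-exchange resin capture; IC50 from six ten-fold dilutions, triplicate.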

Where [2] appears, read: Table 1, phenoxypyrazole MK-2 inhibitors.
Setting [3] is: Table 1, phenoxypyrazole MK-2 inhibitors, read-out: MK-2 Avg, IC50.
[4] abbreviates: Table 5, other cyclic pyrazole MK-2 inhibiting compounds.
[5] abbreviates: Table 5, other cyclic pyrazole MK-2 inhibiting compounds, read-out: MK-2 Avg. IC50.
Where [6] appears, read: Table 2, pyrazolylpyrazole MK-2 inhibitors.
The mark [7] stands for this setting: Table 2, pyrazolylpyrazole MK-2 inhibitors, read-out: MK-2 Avg. IC50.

Usually IC50 stands for the concentration needed to halve the response being measured.

The structures appear in SMILES notation. Like-named read-outs stand apart in the source and are kept apart here.

Chain of MAPKAPK2 (MK-2) (P49137 whole entry, species assumed): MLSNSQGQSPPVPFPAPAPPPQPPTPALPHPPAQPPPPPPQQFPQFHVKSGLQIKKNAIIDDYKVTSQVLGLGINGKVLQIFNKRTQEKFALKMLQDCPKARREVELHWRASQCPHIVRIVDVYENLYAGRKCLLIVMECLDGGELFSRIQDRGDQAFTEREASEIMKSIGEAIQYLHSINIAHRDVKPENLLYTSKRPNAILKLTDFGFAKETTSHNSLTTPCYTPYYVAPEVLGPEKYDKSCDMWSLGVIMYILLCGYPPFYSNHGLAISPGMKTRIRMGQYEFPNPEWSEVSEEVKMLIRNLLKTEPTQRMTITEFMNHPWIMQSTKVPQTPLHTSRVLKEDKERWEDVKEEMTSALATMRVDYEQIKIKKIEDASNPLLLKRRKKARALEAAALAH
Chain of MK-3 (Q16644 whole entry, species assumed): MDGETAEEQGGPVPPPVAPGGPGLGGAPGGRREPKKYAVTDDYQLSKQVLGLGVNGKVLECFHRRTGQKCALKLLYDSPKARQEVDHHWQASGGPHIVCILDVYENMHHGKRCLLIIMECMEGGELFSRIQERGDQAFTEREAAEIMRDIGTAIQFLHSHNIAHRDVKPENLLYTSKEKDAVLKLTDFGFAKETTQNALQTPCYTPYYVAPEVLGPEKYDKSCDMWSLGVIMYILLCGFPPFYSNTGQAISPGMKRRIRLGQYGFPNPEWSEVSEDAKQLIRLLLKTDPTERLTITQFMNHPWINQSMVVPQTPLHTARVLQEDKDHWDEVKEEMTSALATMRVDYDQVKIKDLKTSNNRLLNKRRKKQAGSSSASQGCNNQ

For the compound `C[S+]([O-])c1ccc(-c2nc(-c3ccncc3)c(-c3ccc(F)cc3)[nH]2)cc1` (centres unmarked) [SB203580], the development of arthritis result (with adjuvant arthritis; in assay [1]) was “inhibit the development” in each case. Also, in the assay on endotoxin-induced shock, the mortality entry is “reduce mortality”.

Turning to `Nc1nccc(-c2c(-c3ccc(F)cc3)ncn2C2CCNCC2)n1` [SB 220025], the “vascular density of granulomas” value with granulomas is reported as “significant dose-dependent decrease”.

In the case of `O=C(O)c1c2c(nn1CCCNCCc1ccc(-c3csc4ccccc34)cc1)-c1ccncc1CC2` [Example 60], the figures for the half-maximal inhibitory concentration (IC50) at MK-3 and at MAPKAPK2 (MK-2) (read-out: MK-2 Avg. IC50) were 15.6 µM and 575 nM, respectively.

Turning to `CC(C)(C)c1ccc(-c2cc3c(cc2O)CCc2c-3nn(CCCN)c2C(=O)O)cc1` [Example 22], the values for the IC50 at MK-3 (setting [2]) and on MAPKAPK2 (MK-2) (setting [3]) were 120 µM and 18800 nM, respectively.

Regarding `COC(=O)c1[nH]nc2c1CCc1cc(OC)c(Br)cc1-2` [Example 183], the IC50 on MK-3 (setting [2]) is over 200 µM; on MAPKAPK2 (MK-2) (setting [3]), over 200000 nM.

For `CCOC(=O)c1[nH]nc2c1CCc1cc(OC)c(OC)cc1-2` [Example 167], the values for the IC50 at MK-3 (setting [2]) and at MAPKAPK2 (MK-2) (setting [3]) were over 200 µM and over 200000 nM, respectively.

`CC(=O)c1ccc(CCCNCCCn2nc3c(c2C(=O)O)CCc2cnccc2-3)cc1` [Example 63]: the half-inhibitory concentration (IC50) at MK-3 is 12.6 µM; at MAPKAPK2 (MK-2) (read-out: MK-2 Avg. IC50), 603 nM.

Take `CC1Cc2c(n[nH]c2C(=O)O)-c2ccc(O)cc21` (centres unmarked) [Example 48]: the 50% inhibitory concentration (IC50) at MK-3 (setting [2]) is over 200 µM; on MAPKAPK2 (MK-2) (setting [3]), 97100 nM.

As to `O=C1NCCn2nc3c(c21)CCc1cnc(/C=C/c2cccc(O)c2)cc1-3` [Example 1], the IC50 on MK-3 (setting [4]) came out at 3.62 µM; at MAPKAPK2 (MK-2) (setting [5]), 21.1 nM.

For `NCc1cccc(-c2ccc(CCNCCCn3nc4c(c3C(=O)O)CCc3cnccc3-4)cc2)c1` [Example 67], the IC50 came out at 10 µM on MK-3 and 663 nM at MAPKAPK2 (MK-2) (read-out: MK-2 Avg. IC50).

Turning to `CCOC(=O)c1nn(-c2ccc(S(N)(=O)=O)cc2)c2c1CCc1cc(OC)c(OC)cc1-2` [Example 174], the results for the 50% inhibitory concentration (IC50) on MK-3 (setting [2]) and at MAPKAPK2 (MK-2) (setting [3]) were over 200 µM and over 200000 nM, respectively.

Turning to `COc1ccc2c(c1)CCc1c(C(=O)O)nn(-c3ccc(Cl)cc3)c1-2` [Example 160], the figures for the half-maximal inhibitory concentration (IC50) at MK-3 (setting [2]) and at MAPKAPK2 (MK-2) (setting [3]) were over 200 µM and over 200000 nM, respectively.

Turning to `Nc1cc2c(cc1O)CCc1c-2nn2c1C(=O)NCCC2` [Example 45], the 50% inhibitory concentration (IC50) on MK-3 (setting [2]) was over 200 µM; on MAPKAPK2 (MK-2) (setting [3]) it was 88700 nM.

As to `O=C1NCCn2nc3c(c21)CCc1cnc(/C=C/c2ccc4c(c2)OCO4)cc1-3` [Example 4], the half-maximal inhibitory concentration (IC50) on MK-3 (setting [4]) is over 20 µM; on MAPKAPK2 (MK-2) (setting [5]) it was 223 nM.

As for `C=CCSc1n[nH]c2c1-c1nn(CCCN)c(C(=O)O)c1CC2` [Example 5], the IC50 was found to be 41.4 µM on MK-3 (setting [6]) and 2840 nM on MAPKAPK2 (MK-2) (setting [7]).

For `NCCCn1nc2c(c1C(=O)O)CCc1cc(O)c(CCc3ccc(Cl)cc3)cc1-2` [Example 6], the half-inhibitory concentration (IC50) on MK-3 (setting [2]) is 38.2 µM; at MAPKAPK2 (MK-2) (setting [3]) it was 2290 nM.

`CCOC(=O)c1c2c(nn1CCCN)-c1c(SC)n[nH]c1CC2` [Example 20]: the IC50 on MK-3 (setting [6]) is at least 200 µM; on MAPKAPK2 (MK-2) (setting [7]) it was 55300 nM.

Consider `CNC(=O)c1nn(-c2ccc(S(N)(=O)=O)cc2)c2c1CCc1c-2cnn1Cc1ccccc1` [Example 48], for which the values for the IC50 at MK-3 (setting [6]) and at MAPKAPK2 (MK-2) (setting [7]) were at least 200 µM and at least 200000 nM, respectively.

As for `COc1cc2c(cc1-c1cccc(S(C)(=O)=O)c1)-c1nn(CCCNC(=O)OC(C)(C)C)c(C(=O)O)c1CC2` [Example 57], the IC50 on MK-3 (setting [2]) was over 200 µM; at MAPKAPK2 (MK-2) (setting [3]) it was 143000 nM.

In the case of `N#CCCCn1nc2c(c1C(=O)O)CCc1[nH]ncc1-2` [Example 32], the IC50 on MK-3 (setting [6]) is at least 200 µM; on MAPKAPK2 (MK-2) (setting [7]) it was 116000 nM.

In the case of `Cc1ccc(CCNCCCn2nc3c(c2C(=O)O)CCc2cnccc2-3)cc1` [Example 72], the 50% inhibitory concentration (IC50) on MK-3 amounted to 17.2 µM; on MAPKAPK2 (MK-2) (read-out: MK-2 Avg. IC50) it was 890 nM.

With `NCCCn1nc2c(c1C(=O)O)CCc1[nH]ncc1-2` [Example 2], the IC50 is 35.3 µM at MK-3 (setting [6]) and 2170 nM on MAPKAPK2 (MK-2) (setting [7]).

The values above are taken from patent publication US20040127492A1 (Pharmacia Corporation, priority 2002, published 2004).
